Reference: ChEMBL document CHEMBL1151031, “Lipophilic bis-arylsulfonates as inhibitors of the CD4-gp120 interaction” (Bioorg Med Chem Lett, 1996)

What was measured:
[1] = Inhibition of HIV gp120 binding to CD4 receptor using ELISA assay; design: species or system Human immunodeficiency virus 1
[2] = Inhibition of gp120 binding to CEM cells in vitro.; type: functional, cell-based; conditions: ccrf-cem
CCRF-CEM [3] = assay: Compound was evaluated for the cytotoxicity against CEM cells; type: functional; conditions: Homo sapiens, read-out: CD50 (the source's name)
CCRF-CEM [4] = assay: Compound was evaluated for the inhibition of gp120 binding to monoclonal antibodies in CEM cells; Flat dose response; type: functional, cell-based, Homo sapiens

O=S(=O)(O)c1ccc2c(C(=CCCc3ccc4ccccc4c3)c3cccc4cc(S(=O)(=O)O)ccc34)cccc2c1
IC50 [1]: > 350 µM
IC50 [2]: > 170 µM

O=S(=O)(O)c1ccc2c(C(=CCCc3ccc4c(c3)CCc3ccccc3-4)c3cccc4cc(S(=O)(=O)O)ccc34)cccc2c1
IC50 [1]: 292 µM
IC50 [2]: 49 µM

CC(C)CCCC(C)[C@H]1CC[C@H]2[C@@H]3CCC4CC(C=C(c5cccc6cc(S(=O)(=O)O)ccc56)c5cccc6cc(S(=O)(=O)O)ccc56)CC[C@]4(C)[C@H]3CC[C@]12C (some centres undefined)
IC50 [1]: 16 µM
IC50 [2]: 6 µM

CC(C)CCCC(C)[C@H]1CC[C@H]2[C@@H]3CCC4CC(CCC=C(c5ccc(S(=O)(=O)O)cc5)c5ccc(S(=O)(=O)O)cc5)CC[C@]4(C)[C@H]3CC[C@]12C (some centres undefined)
IC50 [1]: 13 µM
CC50 (CCRF-CEM [3]): 135 µM
IC50 [2]: 47 µM

CC(C)CCCC(C)[C@H]1CC[C@H]2[C@@H]3CC[C@@H]4CC(C=C(c5cccc6cc(S(=O)(=O)O)ccc56)c5cccc6cc(S(=O)(=O)O)ccc56)CC[C@]4(C)[C@H]3CC[C@]12C (some centres undefined)
IC50 [1]: 26 µM
IC50 [2]: 13 µM

O=S(=O)(O)c1ccc2c(C(=CC3CCCCCCCCC3)c3cccc4cc(S(=O)(=O)O)ccc34)cccc2c1
IC50 [1]: > 400 µM
IC50 [2]: 150 µM

CC(C)CCCC(C)[C@H]1CC[C@H]2[C@@H]3CCC4CC(CCC=C(c5cccc6ccc(S(=O)(=O)O)cc56)c5cccc6ccc(S(=O)(=O)O)cc56)CC[C@]4(C)[C@H]3CC[C@]12C (some centres undefined)
IC50 [1]: 10 µM
CC50 (CCRF-CEM [3]): 120 µM
IC50 [2]: 7 µM

C[C@@]12CCC[C@H]1[C@@H]1CCC3CC(C=C(c4cccc5cc(S(=O)(=O)O)ccc45)c4cccc5cc(S(=O)(=O)O)ccc45)CC[C@]3(C)[C@H]1CC2 (some centres undefined)
IC50 [1]: 26 µM
IC50 [2]: 17 µM

CCCCC/C=C/C/C=C/CCCCCCC=C(c1cccc2cc(S(=O)(=O)O)ccc12)c1cccc2cc(S(=O)(=O)O)ccc12
IC50 [1]: 56 µM

CC(C)CCCC(C)[C@H]1CC[C@H]2[C@@H]3CCC4CC(OCCC=C(c5cccc6cc(S(=O)(=O)O)ccc56)c5cccc6cc(S(=O)(=O)O)ccc56)CC[C@]4(C)[C@H]3CC[C@]12C (some centres undefined)
IC50 [1]: 31 µM
IC50 [2]: 6 µM

CC(C)CCCC(C)[C@H]1CC[C@H]2[C@@H]3CCC4CC(C=C(c5ccc(S(=O)(=O)O)cc5)c5ccc(S(=O)(=O)O)cc5)CC[C@]4(C)[C@H]3CC[C@]12C (some centres undefined)
IC50 [1]: 10 µM
CC50 (CCRF-CEM [3]): 56 µM
IC50 [2]: 39 µM

CC(C)CCCC(C)[C@H]1CC[C@H]2[C@@H]3CCC4C[C@@H](CCC=C(c5cc(Cl)c(O)c(C(=O)O)c5)c5cc(Cl)c(O)c(C(=O)O)c5)CC[C@]4(C)[C@H]3CC[C@]12C (some centres undefined)
IC50 [1]: 18 µM
IC50 [2]: 5 µM

C[C@]12CCC(C=C(c3cccc4cc(S(=O)(=O)O)ccc34)c3cccc4cc(S(=O)(=O)O)ccc34)CC1CC[C@@H]1[C@@H]2CC[C@]2(C)C(=O)CC[C@@H]12 (some centres undefined)
IC50 [1]: 107 µM
IC50 [2]: 35 µM

CCCCCCCCCCCCCCCCC1(C)CCc2c(C)c(OCCC=C(c3cccc4cc(S(=O)(=O)O)ccc34)c3cccc4cc(S(=O)(=O)O)ccc34)c(C)c(C)c2O1 (centres undefined)
IC50 [1]: 25 µM
IC50 [2]: 5 µM

CC(C)CCCC(C)[C@H]1CC[C@H]2[C@@H]3CCC4CC(C=C(c5cccc6ccc(S(=O)(=O)O)cc56)c5cccc6ccc(S(=O)(=O)O)cc56)CC[C@]4(C)[C@H]3CC[C@]12C (some centres undefined)
IC50 [1]: 10 µM
CC50 (CCRF-CEM [3]): 125 µM
IC50 [2]: 25 µM

CCCCCCCC1(C)CCc2c(C)c(OCCC=C(c3cccc4cc(S(=O)(=O)O)ccc34)c3cccc4cc(S(=O)(=O)O)ccc34)c(C)c(C)c2O1 (centres undefined)
IC50 [1]: 41 µM
IC50 [2]: 23 µM

CC(C)CCCC(C)[C@H]1CC[C@H]2[C@@H]3CCC4CC(CCC=C(c5cccc6cc(S(=O)(=O)O)ccc56)c5cccc6cc(S(=O)(=O)O)ccc56)CC[C@]4(C)[C@H]3CC[C@]12C (stereo in doubt; 1401)
IC50 [1]: 9 µM
IC50 [2]: 7 µM

C[C@]12CC[C@H]3[C@@H](CCC4CC(C=C(c5cccc6cc(S(=O)(=O)O)ccc56)c5cccc6cc(S(=O)(=O)O)ccc56)CC[C@@]43C)[C@@H]1CC[C@@H]2O (some centres undefined)
IC50 [1]: 83 µM
IC50 [2]: 24 µM

CC(C)CCCC(C)[C@H]1CC[C@H]2[C@@H]3CCC4CC(CCC=C(c5cccc6cc(S(=O)(=O)O)ccc56)c5cccc6cc(S(=O)(=O)O)ccc56)CC[C@]4(C)[C@H]3CC[C@]12C (stereo in doubt)
IC50 [1]: 18 µM
IC50 [2]: 9 µM

O=S(=O)(O)c1ccc2c(C(=CC3CCCCCCCCCCCCCC3)c3cccc4cc(S(=O)(=O)O)ccc34)cccc2c1
IC50 [1]: 130 µM
IC50 [2]: 52 µM

C=CCO[C@H]1CC[C@H]2[C@@H]3CCC4CC(C=C(c5cccc6cc(S(=O)(=O)O)ccc56)c5cccc6cc(S(=O)(=O)O)ccc56)CC[C@]4(C)[C@H]3CC[C@]12C (some centres undefined)
IC50 [1]: 33 µM
CC50 (CCRF-CEM [3]): 100 µM
IC50 [2]: 12 µM

CC(C)CCCC(C)[C@H]1CC[C@H]2[C@@H]3CCC4CC(C=C(c5cccc(S(=O)(=O)O)c5)c5cccc(S(=O)(=O)O)c5)CC[C@]4(C)[C@H]3CC[C@]12C (some centres undefined)
IC50 [1]: 62 µM
IC50 (CCRF-CEM [4]): Flat dose response

CCCCCCCCCCCCCCCCC=C(c1cccc2cc(S(=O)(=O)O)ccc12)c1cccc2cc(S(=O)(=O)O)ccc12
IC50 [1]: 192 µM
